From ChEMBL document CHEMBL4177724, “Effect of side chain hydrophobicity and cationic charge on antimicrobial activity and cytotoxicity of helical peptoids” (Bioorg Med Chem Lett, 2018)
≈ marks a conversion by molar mass, not a printed value. Non-standard residues stand in square brackets, D forms with d. Residues, ends and D or L forms follow the SMILES beside them. Nspe = C[C@H](NCC(=O)O)c1ccccc1; Nlys = NCCCCNCC(=O)O

How the values were obtained:
[1] = system: Escherichia coli; assay: Antibacterial activity against Escherichia coli then incubated at 37 degC for 24 hrs by broth dilution assay; type: functional
[2] = Cytotoxicity against human Jurkat cells assessed as reduction in cell viability incubated for 24 hrs by MTS assay; type: cell-based; conditions: read-out: LC50
[3] = system: Bacillus subtilis; assay: Antibacterial activity against Bacillus subtilis then incubated at 37 degC for 24 hrs by broth dilution assay; type: functional
[4] = system: Erythrocyte; assay: (§1) Induction of hemolysis in Sprague-Dawley rat erythrocytes incubated at 37 degC for 60 mins by spectrophotometry; type: cell-based; conditions: erythrocyte, 1 h
[5] = as §1; type: cell-based, Erythrocyte; conditions: Sprague-Dawley, erythrocytes, read-out: HD50
[6] = Cytotoxicity against human LNCAP cells assessed as reduction in cell viability incubated for 24 hrs by MTS assay; type: cell-based; conditions: read-out: LC50
[7] = Induction of hemolysis in Sprague-Dawley rat erythrocytes at 200 uM incubated at 37 degC for 60 mins by spectrophotometry; type: cell-based, Erythrocyte; conditions: read-out: Activity
[8] = Cytotoxicity against human MRC5 cells assessed as reduction in cell viability incubated for 24 hrs by MTS assay; type: cell-based; conditions: read-out: LC50

SMILES | MIC [1] [µM] | CC50 at 24 h [2] [µM] | MIC [3] [µM] | HD10 [4] [µM] | HC50 at 1 h [5] [µM] | CC50 at 24 h [6] [µM] | hemolysis at 1 h, 200 µM [7] [%] | CC50 at 24 h [8] [µM]
C[C@@H](c1ccc(F)cc1)N(CC(N)=O)C(=O)CN(C(=O)CN(CCCCN)C(=O)CN(C(=O)CN(C(=O)CN(CCCCN)C(=O)CN(C(=O)CN(C(=O)CN(CCCCN)C(=O)CN(C(=O)CN(C(=O)CNCCCCN)[C@@H](C)c1ccc(F)cc1)[C@@H](C)c1ccc(F)cc1)[C@@H](C)c1ccc(F)cc1)[C@@H](C)c1ccc(F)cc1)[C@@H](C)c1ccc(F)cc1)[C@@H](C)c1ccc(F)cc1)[C@@H](C)c1ccc(F)cc1 | 3.1 (≈ 6.09 µg/mL) | 2.47 | 0.4 (≈ 0.785 µg/mL) | < 6.25 | < 6.25 | 9.5 | 100 | 9.5
CC[C@H](C)[C@H](NC(=O)CN)C(=O)NCC(=O)N[C@@H](CCCCN)C(=O)N[C@@H](Cc1ccccc1)C(=O)N[C@@H](CC(C)C)C(=O)N[C@@H](CCCCN)C(=O)N[C@@H](CCCCN)C(=O)N[C@@H](C)C(=O)N[C@@H](CCCCN)C(=O)N[C@@H](CCCCN)C(=O)N[C@@H](Cc1ccccc1)C(=O)NCC(=O)N[C@@H](CCCCN)C(=O)N[C@@H](C)C(=O)N[C@@H](Cc1ccccc1)C(=O)N[C@H](C(=O)N[C@@H](CCCCN)C(=O)N[C@H](C(=O)N[C@@H](CC(C)C)C(=O)N[C@@H](CCCCN)C(=O)N[C@@H](CCCCN)C(N)=O)[C@@H](C)CC)C(C)C [PEXIGANAN] (H-GIGKFLKKAKKFGKAFVKILKK-NH2) | 0.8 (≈ 1.98 µg/mL) | – | 0.4 (≈ 0.991 µg/mL) | 113.4 | > 200 | – | 21.5 | 21.2
C[C@@H](c1ccccc1)N(CC(=O)N(CCCCN)CC(=O)N(CC(=O)N(CC(=O)N(CCCCN)CC(=O)N(CC(=O)N(CC(=O)N(CCCCN)CC(N)=O)[C@@H](C)c1ccccc1)[C@@H](C)c1ccccc1)[C@@H](C)c1ccccc1)[C@@H](C)c1ccccc1)C(=O)CN(C(=O)CNCCCCN)[C@@H](C)c1ccccc1 (H-[Nlys][Nspe][Nspe][Nlys][Nspe][Nspe][Nlys][Nspe][Nspe][Nlys]-NH2) | 1.6 (≈ 2.4 µg/mL) | 28.9 | 0.8 (≈ 1.2 µg/mL) | > 200 | > 200 | – | 9.8 | 80.5
C[C@H](c1ccccc1)N(CC(N)=O)C(=O)CN(C(=O)CN(CCCCN)C(=O)CN(C(=O)CN(C(=O)CN(CCCCN)C(=O)CN(C(=O)CN(C(=O)CNCCCCN)[C@H](C)c1ccccc1)[C@@H](C)c1ccccc1)[C@H](C)c1ccccc1)[C@@H](C)c1ccccc1)[C@H](C)c1ccccc1 (stereo in doubt) | 3.1 (≈ 4.24 µg/mL) | 18.6 | 1.6 (≈ 2.19 µg/mL) | 119.5 | > 200 | 27 | 38.7 | 40
Cc1ccc([C@H](C)N(CC(N)=O)C(=O)CN(C(=O)CN(CCCCN)C(=O)CN(C(=O)CN(C(=O)CN(CCCCN)C(=O)CN(C(=O)CN(C(=O)CN(CCCCN)C(=O)CN(C(=O)CN(C(=O)CNCCCCN)[C@@H](C)c2ccc(C)cc2)[C@@H](C)c2ccc(C)cc2)[C@@H](C)c2ccc(C)cc2)[C@@H](C)c2ccc(C)cc2)[C@@H](C)c2ccc(C)cc2)[C@@H](C)c2ccc(C)cc2)[C@@H](C)c2ccc(C)cc2)cc1 | > 6.1 | – | 0.8 (≈ 1.55 µg/mL) | < 6.25 | 8.3 | 12 | 100 | 8
C[C@@H](c1ccc(Cl)cc1)N(CC(N)=O)C(=O)CN(C(=O)CN(CCCCN)C(=O)CN(C(=O)CN(C(=O)CN(CCCCN)C(=O)CN(C(=O)CN(C(=O)CN(CCCCN)C(=O)CN(C(=O)CN(C(=O)CNCCCCN)[C@@H](C)c1ccc(Cl)cc1)[C@@H](C)c1ccc(Cl)cc1)[C@@H](C)c1ccc(Cl)cc1)[C@@H](C)c1ccc(Cl)cc1)[C@@H](C)c1ccc(Cl)cc1)[C@@H](C)c1ccc(Cl)cc1)[C@@H](C)c1ccc(Cl)cc1 | > 6.1 | 1.58 | 6.1 (≈ 12.8 µg/mL) | < 6.25 | 10.4 | 10 | 100 | 3
C[C@@H](c1ccccc1)N(CC(=O)N(CCCCN)CC(=O)N(CC(=O)N(CC(=O)N(CCCCN)CC(=O)N(CC(=O)N(CC(=O)N(CCCCN)CC(=O)N(CC(=O)N(CC(=O)N(CCCCN)CC(N)=O)[C@@H](C)c1ccccc1)[C@@H](C)c1ccccc1)[C@@H](C)c1ccccc1)[C@@H](C)c1ccccc1)[C@@H](C)c1ccccc1)[C@@H](C)c1ccccc1)C(=O)CN(C(=O)CNCCCCN)[C@@H](C)c1ccccc1 (H-[Nlys][Nspe][Nspe][Nlys][Nspe][Nspe][Nlys][Nspe][Nspe][Nlys][Nspe][Nspe][Nlys]-NH2) | 1.6 (≈ 3.12 µg/mL) | 5.04 | 0.4 (≈ 0.779 µg/mL) | 19.5 | > 200 | – | 48.1 | 10
C[C@@H](c1ccccc1)N(CC(N)=O)C(=O)CN(C(=O)CN(CCCCN)C(=O)CN(C(=O)CN(C(=O)CN(CCCCN)C(=O)CN(C(=O)CN(C(=O)CN(CCCCN)C(=O)CN(C(=O)CN(C(=O)CNCCCCN)[C@@H](C)c1ccccc1)[C@@H](C)c1ccccc1)[C@@H](C)c1ccccc1)[C@@H](C)c1ccccc1)[C@@H](C)c1ccccc1)[C@@H](C)c1ccccc1)[C@@H](C)c1ccccc1 (H-[Nlys][Nspe][Nspe][Nlys][Nspe][Nspe][Nlys][Nspe][Nspe][Nlys][Nspe][Nspe]-NH2) | 1.6 (≈ 2.91 µg/mL) | 2.21 | 0.8 (≈ 1.46 µg/mL) | 9.1 | 63.4 | 5 | 100 | 8
